Test [1] deals with Beta-lactamase (Staphylococcus aureus, UniProt P00807). The test is described as follows: The compound was evaluated for inhibition against Beta-lactamase derived from Staphylococcus aureus.
Test [2] deals with Beta-lactamase TEM (Escherichia coli, UniProt P62593). The experiment in a line: The compound was evaluated for inhibition against Beta-lactamase TEM […].
Test [3] concerns the target Beta-lactamase class C (Enterobacter cloacae, UniProt Q59401). The test is described as follows: Inhibition of Class C beta-lactamase from Enterobacter cloacae strain P99.

Structures are written as SMILES.

Beta-lactamase class C, sequence (Q59401 whole entry): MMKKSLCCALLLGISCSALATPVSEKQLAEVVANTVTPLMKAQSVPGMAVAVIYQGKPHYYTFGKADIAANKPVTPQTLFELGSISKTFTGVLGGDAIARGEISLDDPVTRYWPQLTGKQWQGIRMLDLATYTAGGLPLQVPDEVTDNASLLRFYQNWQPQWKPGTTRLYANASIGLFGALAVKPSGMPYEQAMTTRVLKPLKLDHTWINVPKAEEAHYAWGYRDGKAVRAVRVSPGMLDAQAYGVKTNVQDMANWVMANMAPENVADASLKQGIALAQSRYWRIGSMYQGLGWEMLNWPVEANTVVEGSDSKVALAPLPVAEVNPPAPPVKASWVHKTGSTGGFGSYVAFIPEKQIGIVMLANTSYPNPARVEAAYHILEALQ
Beta-lactamase, sequence (P00807 whole entry): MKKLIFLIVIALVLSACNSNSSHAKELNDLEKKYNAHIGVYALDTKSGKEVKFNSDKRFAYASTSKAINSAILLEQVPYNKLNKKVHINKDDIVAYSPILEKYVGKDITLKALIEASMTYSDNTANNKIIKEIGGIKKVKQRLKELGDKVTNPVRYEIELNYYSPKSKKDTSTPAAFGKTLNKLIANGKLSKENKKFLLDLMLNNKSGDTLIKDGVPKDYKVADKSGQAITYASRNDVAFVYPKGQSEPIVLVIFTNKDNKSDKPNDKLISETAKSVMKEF
Beta-lactamase TEM, sequence (P62593 whole entry): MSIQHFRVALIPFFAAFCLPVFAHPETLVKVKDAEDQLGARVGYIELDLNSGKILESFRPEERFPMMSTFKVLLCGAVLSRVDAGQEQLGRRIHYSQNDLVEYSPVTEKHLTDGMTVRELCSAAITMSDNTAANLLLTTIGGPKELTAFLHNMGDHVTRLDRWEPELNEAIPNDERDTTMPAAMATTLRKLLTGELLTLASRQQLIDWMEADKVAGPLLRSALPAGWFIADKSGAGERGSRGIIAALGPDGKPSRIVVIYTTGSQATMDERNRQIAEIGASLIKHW

For `CC(=O)OCC1=C(C(=O)O)N2C(=O)/C(=C/C(=O)OC(C)(C)C)[C@H]2S(=O)(=O)C1`, the IC50 (in general, the concentration needed to halve the response being measured) was found to be 977 µM in test [1], 0.03 µM in test [2] and 6.56 µM in test [3].
For `C=C1C(C)=C(C(=O)O)N2C(=O)/C(=C/C(=O)O)[C@H]2S1(=O)=O`, the IC50 in test [2] amounted to 277 µM; in test [3] it was 36.8 µM.
For `C=C1C(COC(C)=O)=C(C(=O)O)N2C(=O)/C(=C/C(=O)OC(C)(C)C)[C@H]2S1(=O)=O`, the IC50 in test [3] worked out at 1.55 µM.
`CC1=C(C(=O)O)N2C(=O)/C(=C/c3ccccn3)[C@H]2S(=O)(=O)[C@@H]1Sc1nnnn1C`: the IC50 in test [1] came out at 844 µM; in test [2] it was 31.6 µM; in test [3] it was 29 µM.
For `C=C1C(CSc2nnnn2C)=C(C(=O)O)N2C(=O)/C(=C/C(=O)OC(C)(C)C)[C@H]2S1(=O)=O`, the IC50 in test [2] came to 1.13 µM; in test [3], 2.38 µM.
Regarding `CSC(SC)=C1C(C)=C(C(=O)O)N2C(=O)/C(=C/c3ccccn3)[C@H]2S1(=O)=O`, the values for the IC50 in test [2] and in test [3] were 173 µM and 0.51 µM, respectively.
Regarding `CC1=C(C(=O)O)N2C(=O)/C(=C/c3ccccn3)[C@H]2S(=O)(=O)C1C` (stereo partly drawn), the IC50 in test [1] turned out to be 102 µM; in test [2], 74.1 µM; in test [3], 3.9 µM.
On the same counts, the results for `C=C1C(C)=C(C(=O)O)N2C(=O)/C(=C/c3ccccn3)[C@H]2S1(=O)=O` are 1860 µM, 91.1 µM and 0.039 µM.
With `C=C1C(COC(C)=O)=C(C(=O)O)N2C(=O)/C(=C/c3ccccn3)[C@H]2S1(=O)=O`, the results for the IC50 in test [1] and in test [3] were 733 µM and 0.165 µM, respectively.
`C=C1C(C)=C(C(=O)O)N2C(=O)/C(=C/C(=O)OC(C)(C)C)[C@H]2S1(=O)=O` registered an IC50 in test [3] of 48.6 µM.
`C=C1C(COC(C)=O)=C(C(=O)O)N2C(=O)/C(=C/C(=O)O)[C@H]2S1(=O)=O`: the IC50 in test [1] is 230 µM; in test [2], 498 µM; in test [3], 2.49 µM.
On the same counts, the results for `CC(=O)OCC1=C(C(=O)O)N2C(=O)/C(=C/c3ccccn3)[C@H]2S(=O)(=O)C1` are 402 µM, 34.8 µM and 0.498 µM.

These data come from ChEMBL document CHEMBL1133345, “The synthesis and evaluation of 2-substituted-7-(alkylidene)cephalosporin sulfones as beta-lactamase inhibitors” (Bioorg Med Chem Lett, 2000).
